From patent US20160207904A1, “CRYSTALLINE 2-HYDROXY-6-((2-(1-ISOPROPYL-1H-PYRAZOL-5-YL)PYRIDIN-3-YL)METHOXY)BENZALDEHYDE ANSOLVATE SALTS” (GLOBAL BLOOD THERAPEUTICS, INC., priority 2013, published 2016)

Key:
Type in all cases: physicochemical
[1] = Dynamic vapor sorption (DVS); details: at 80% RH, 25.0±1.0° C.
Experimental: Dynamic Vapor Sorption (DVS): Dynamic moisture adsorption and desorption was studied using IGA Sorp (Hidden Isochema Ltd.Warrington, UK). About 5 mg (3˜5 mg) of a prepared sample was placed in a sample basket and hung in the measuring chamber of an IGA Sorp. For an isotherm test, the chamber temperature is maintained by a water bath at constant 25.0±1.0° C. The sample was tested at a targeted RH range from 0% to 90% full cycle in step mode. The analysis is performed in 10% increment. Time duration at each RH was set as […] Solid State Characterizaton: Form I of Compound 1 hydrochloride was characterized by XRPD (FIG. 1), TGA (FIG. 2), DSC (FIG. 3), DVS (FIG. 4). […] The crystal form of the initial drug substance is assigned as Form I.

[2] = Interconversion study (slurries of mixed forms in ethyl acetate or ethanol, XRPD); details: ambient condition, hydrochloride
Experimental: (§1) In an interconversion study, a mixture of all identified crystal forms turned into Form I after slurry experiments in ethyl acetate or ethanol. […] The XRPD patterns and microscopy images of the three crystal forms are shown in FIG. 6 and FIG. 7, respectively.
Interconversion Study: Interconversion experiments were carried out by making slurries containing the same amount of different forms solids in ethyl acetate or ethanol. The slurries were kept stirring for days at ambient condition. The insoluble solids were recovered by filtration and examined using XRPD.
Interconversion experiments were performed with the various crystalline forms. Samples of equal amount of Form I mixed with Form II in solvents (ethyl acetate or ethanol) were slurried at ambient condition with covering. The remaining solids were collected by filtration and examined by XRPD. […] Some observed differences in the —OH stretch region at 3500 cm−1 in FTIR were most likely due to the preferred orientation which may be caused by particle size and morphology difference.

[3] = Physical stability of crystal forms at ambient conditions; details: converted into Form I or a mixture of Form I and its free base
Text: Methods: Three crystal forms of 2-hydroxy-6-((2-(1-isopropyl-1H-pyrazol-5-yl)pyridin-3-yl)methoxy)benzaldehyde hydrochloride with different XRPD patterns were identified in this study based on a matrix of crystallizations in various solvents, screened in 96-wells as described below. An initial drug substance was assigned as Form I. Form I was also obtained in numerous conditions during solvent crystallization in the 96-well screen and in slurry studies. Form II and Form III were also generated. Solids obtained were characterized by X-ray powder diffraction (XRPD), differential scanning calorimetry (DSC), thermogravimetry (TGA), polarizing microscope (PLM) and Fourier transform infrared spectrometer (FTIR).
as §1

[4] = Heating to 80° C. by TGA, then XRPD; details: heated to 80° C. by TGA
Experimental: Powder X-RayDiffraction (XRPD): The solid samples were examined using X-ray diffractometer (Bruker D8 advance). The system is equipped with LynxEye detector. The samples were scanned from 3 to 40° 2θ, at a step size 0.02° 2θ. The tube voltage and current were 40 KV and 40 mA respectively. The sample was transferred from sample container onto zero background XRD holder and gently ground. TGA Analysis: TGA analysis was carried out on a TA Instruments TGA Q500. Samples was placed in a tarred platinum or aluminum pan, automatically weighed and inserted into the TGA furnace. The samples were heated at a rate of 10° C./min to final temperature of 300° C. The purge gas is nitrogen for balance at 40 ml/min and for the sample at 60 ml/min, respectively. Scale-up of Form II: 60 mg or 40 mg of Compound 1 hydrochloride was dissolved in 3 mL of ethanol or 1-butanol, respectively. Both solutions were filtered, filtrates were collected and then the two filtrates were combined in (1:1) volume ratio. The resulting solution was allowed to evaporate at ambient condition to dryness to yield Form II.

| Structure (SMILES) | water picked up (DVS profile) [1] | outcome of interconversion (slurry) experiments / relative thermodynamic stability [2] | stability of crystal form at ambient conditions [3] | XRPD after heating [4] |
| --- | --- | --- | --- | --- |
| CC(C)n1nccc1-c1ncccc1COc1cccc(O)c1C=O.Cl [Form I, 2-hydroxy-6-((2-(1-isopropyl-1H-pyrazol-5-yl)pyridin-3-yl)methoxy)benzaldehyde hydrochloride] | < 1% | the most thermodynamically stable form | – | – |
| CC(C)n1nccc1-c1ncccc1COc1cccc(O)c1C=O.Cl [Form II, 2-hydroxy-6-((2-(1-isopropyl-1H-pyrazol-5-yl)pyridin-3-yl)methoxy)benzaldehyde hydrochloride] | – | transforms almost entirely to Form I crystals | unstable at ambient conditions | remained unchanged |
| CC(C)n1nccc1-c1ncccc1COc1cccc(O)c1C=O.Cl [Form III, 2-hydroxy-6-((2-(1-isopropyl-1H-pyrazol-5-yl)pyridin-3-yl)methoxy)benzaldehyde hydrochloride] | – | – | unstable at ambient conditions | – |
